As a reminder, the melting point is the temperature, or range, at which the solid turns liquid.

In turn, `Cc1nn(C)c(F)c1C(=O)Nc1ccccc1C(C)C(O)C(C)C` (centres undefined) returned a melting point of 118 °C.
To `CC1(C)CCC2(CC1)CC(=O)N(CCCn1c(=O)sc3ccc(Cl)cc31)C2=O` belongs 159 to 160 °C; to `CCCCCCCCCCCCCCCCCCOc1cc(N)cc(OCCCOc2ccccc2)c1`, 74 to 76 °C.
The result for `CC1(C)OC(=O)Nc2ccc(-c3coc(C#N)c3)cc21` reads 255 to 256 °C; that for `O=CN(Cc1ccccn1)C1(c2ccc(-c3ccccc3)cc2)CCC1`, 101 °C.
`O=c1[nH]c2cc(Br)c3c(c2[nH]c1=O)CN(Cc1ccccc1)CC3` came in with a melting point of 297 to 302 °C.
Turning to `CSCN1C(=O)c2cccnc2N(CSC)c2cc(Cl)ccc21`, the melting point fell in the range of 181 to 182 °C.
`O=C1N(CC2COCCO2)c2ccccc2C12COc1cc3c(cc12)OCO3` (centres undefined) displayed a melting point of 147 to 149 °C.
Take `Cc1ccc(C(=O)c2c(C)cc(CC(=O)O)n2C)cc1`: the melting point was in the range of 160 to 161 °C.
`CCCc1c(C(=O)C(C)C)c2ccc(C(N)=O)cc2n1Cc1ccccc1Cl` yielded a melting point of 85 to 86 °C.
For the compound `O=C(CCCCCl)c1cccc2c1OCCO2`, the melting point was in the range of 32 to 38 °C.
Compound `Cc1c(C)c2c(c(C)c1N)CC(C)(CN1CCC(c3ccncc3)CC1)O2` (centres undefined) registered a melting point of 126 to 128 °C.
Compound `Nc1ccc2oc3c(c2c1)CCC3` gave a melting point of 86.5 to 88.5 °C.
Compound `CCOC(=O)C(=O)Nc1cc(NC=O)ccc1O` registered a melting point of more than 300 °C.
Take `COC1=C(OC)C(=O)C(CCCCCCCCCCCCCO)=C(C)C1=O`: the melting point was 65 to 66 °C.
With `O=Cc1c(Br)nc(-c2ccccc2)n1Cc1cc2c(cc1Cl)OCO2`, the melting point came to 148 °C.
Turning to `CCc1cc(O)c2cnn(C(C)=O)c2c1`, the melting point was in the range of 161 to 163 °C.
On to `CC(=Cc1ccc(-n2cnc3c2CCCC3)cc1)[N+](=O)[O-]`, for which the melting point is 147 to 149 °C.
Regarding `Nc1ccc2c(c1)c(=O)[nH]c(=O)n2CCCCN1CCC(OC(c2ccccc2)c2ccccc2)CC1`, the melting point was 131 to 133 °C.
In turn, `N#Cc1ccc(CCC(O)c2ccc(C#N)cc2)cc1` (centres undefined) displayed a melting point of 110 to 112 °C.
For the compound `Cc1nc2cc3c(cc2c(=O)[nH]1)C(N(C)c1ccc(C(=O)NC(C(=O)O)c2ccc(CC(=O)O)cc2)c(F)c1)CC3` (mixture of isomers), the melting point is 196 to 200 °C.
Compound `O=[N+]([O-])c1ccc(Br)c(SC(F)(F)F)c1` gave a melting point of 118 °C.
To `O=C1N[C@@H](c2ccccc2)[C@H]1O` belongs 175 to 180 °C; to `Cc1cccc(C)c1N1CC(C)N(c2c(C)cccc2C)C1=N` (single isomer, unassigned; (+)), 99 to 101 °C; to `Cc1oc(-c2ccccc2)nc1CCC(=O)c1ccc(CCC2OC(=O)NC2=O)cc1` (centres undefined), 173 to 174 °C.
Regarding `CN(C(=O)c1cccc2ccccc12)[C@H](Cc1ccc(C(F)(F)F)cc1)[C@@H](O)c1ccc(F)cc1` (racemic), the melting point lay within 196 to 197 °C.
The compound `CCOC(=O)c1ccc(C(C(N)=O)C(CCc2ccccc2)c2ccccc2N2CCCCC2)cc1` (centres undefined) yielded a melting point of 118 to 119 °C.
The result for `Cc1cccc(N(C)c2nc(Cl)nc(Cl)n2)c1C` reads 140 to 141 °C.
The compound `CCCCS(=O)c1ncn(C(=O)N(CCC)CCC)n1` (centres undefined) showed a melting point of 39 to 40 °C.
In turn, `Cc1c(C2CCC(c3ccccc3)(N(C)C)CC2)n(CC(O)CN(C)C)c2ccccc12` (centres undefined) showed a melting point of 54 to 57 °C.
Consider `CSC(=N[N+](=O)[O-])N(Cc1cnc(Cl)s1)C(C)=O`, for which the melting point lay in the range of 77 to 78 °C.
Turning to `CCCCCCc1cc(-c2cccs2)n[nH]1`, the melting point was in the range of 53 to 55 °C.
To `O=C(Oc1ccccc1)N1CCC(c2nn(C(=O)c3ccccc3)c3cc(F)ccc23)CC1` belongs 137 to 139 °C.
With `CCOC(=O)OC1CCC2(C)C3=C(CCC2C1)C1=CCC(C(C)CCCC(C)C)C1(C)CC3` (centres undefined), the melting point was 101 to 106 °C.
As for `CS(=O)(=O)OC1CCN(c2ccc(N)cc2)C1` (centres undefined), the melting point came to 203 °C.
As to `OCc1cc2ccc3ccc4ccccc4c3c2o1`, the melting point lay in the range of 125 to 126 °C.
To `COC(=O)c1cnc2c3cc(NC(=O)CCC4CCCC4)ccc3ncn2c1=O` belongs 244 to 247 °C; to `CCOC(=O)Oc1ccc(/C(=C(/CC)c2ccccc2)c2ccc(/C=C/C(=O)O)cc2)cc1`, 135 to 136 °C.
The compound `COC(=O)c1nsc(N)n1` showed a melting point of 202 to 205 °C.
The result for `O=C(O)CCCC1CCN(CCOC(c2ccc(F)cc2)c2ccc(F)cc2)CC1` reads 145 to 147 °C.
`Clc1ccc2nc(-c3ccccn3)nn2c1`: the melting point was in the range of 118 to 119 °C.
`COc1ccc(-c2ccc(C(=O)NN)cc2)cc1OC1CCCC1` displayed a melting point of 167 to 168 °C.
The result for `CC(C)(C)OC(=O)N1CCC(OCc2ccccc2)C1CC(=O)Cn1cnc2cccc(C(F)(F)F)c2c1=O` (centres undefined) reads 218 °C; that for `Cc1ccc(NC(=O)OC2CN3CCC2CC3)cc1` (centres undefined), 186 to 188 °C; that for `N#Cc1c(N2CCCN(c3cccc(C(F)(F)F)c3)CC2)cc[nH]c1=S`, 247 to 248 °C.
To `O=C(NC(CO)C(=O)c1ccc(Cl)cc1)C1CCN(C(=O)OCc2ccccc2)CC1` (centres undefined) belongs 116 to 118 °C; to `O=C(COc1ccc(Cl)cc1Cc1cc(Cl)ccc1O)OCc1ccccc1`, 135 to 137 °C; to `CCOC(=O)CC1CCc2cncn2C1c1ccc(C#N)cc1` (centres undefined), 126 to 127 °C.
For `COc1ccc(-c2cnc3cc4cn(Cc5ccccc5)nc4cc3n2)cc1F`, the melting point fell in the range of 225 to 227 °C.
For `C1=Cc2ccccc2OC1`, the melting point fell in the range of 48 to 51 °C.
With `CS(=O)(=O)Nc1ccc(SCCCCl)cc1`, the melting point fell in the range of 61 to 63 °C.
Consider `Cc1cc(CSCCC(=C(N)NCCc2cccc(O)c2)[N+](=O)[O-])sc1CN(C)C`, for which the melting point fell in the range of 114 to 115 °C.
Turning to `Nc1ccc2c(ccn2-c2ccncc2)c1`, the melting point was 149 to 154 °C.
`C=CCOC(=O)C1=C(C)NC(C)=C(C(=O)OC(C)C)C1c1cccc([N+](=O)[O-])c1` (centres undefined) showed a melting point of 96 to 97 °C.
Regarding `O=C(OCC1CC1)c1ncn2c1[C@@H]1CCN1C(=O)c1c(Br)cccc1-2`, the melting point was 212 to 213 °C.
Take `Cc1cc(C)c(C2CN(c3cc4[nH]cc(C(=O)O)c(=O)c4cc3F)CCN2)o1` (centres undefined): the melting point was 230 to 232 °C.
Compound `CCOC(=O)CCc1cccc(OCc2ccc(OCc3nc(-c4ccccc4)oc3C)cc2)c1` displayed a melting point of 90 to 91 °C.
To `CCn1cc(C(=O)NCc2ccc(Cl)cc2)c(=O)c2sccc21` belongs 189 to 192 °C; to `NS(=O)(=O)Oc1cccc(Cl)c1`, 82 to 83 °C.
The result for `COc1ccc(CNc2nc(SC)ncc2C(=O)c2cccnc2)cc1Cl` reads 141 to 142 °C; that for `COc1cc(Nc2nc3cccc(-c4ccc(C#N)cc4)c3o2)cc(OC)c1OC`, 222 to 223 °C.
`Nc1c(Br)cc(Cc2cc(Br)c(N)c(Br)c2)cc1Br` registered a melting point of more than 250 °C.
With `CON=Cc1nn(-c2c(Cl)cc(C(F)(F)F)cc2Cl)c(N)c1SC(F)(F)F`, the melting point was in the range of 129 to 132 °C.
`N#CCc1ccccc1Oc1ccc(Br)cc1` had a melting point of 56 to 58 °C.
The compound `CCc1cc(C)cc(CC)c1CC(=O)O` registered a melting point of 124 °C.
To `COC(=O)N(C)C1CN(C(=O)Nc2ccc(OC(F)(F)F)cc2)NC1c1ccc(Cl)cc1` (centres undefined) belongs 179 to 181 °C; to `NC(=O)c1sc2ncnc(-c3cc(O)c4c(c3)OCC4)c2c1N`, 285 °C.
Turning to `CCCCCCCCCCCCCCCCCCN1CC(O)C1`, the melting point lay in the range of 75.5 to 78 °C.
The result for `CN1CCN(c2ccc(OCc3cc(CCC(=O)O)c4c(c3)CC(NS(=O)(=O)c3ccc(Cl)cc3)CC4)cc2)CC1` (centres undefined) reads 148 °C.
In turn, `CC(C)(C)NC(=O)NC(C)(C)C#N` had a melting point of 204 to 205 °C.
Take `CC(=O)N1CCN(CCNc2ncc3ncnc(Nc4ccc(F)c(Cl)c4)c3n2)CC1`: the melting point is 196 to 198 °C.
`CC(=O)c1ccc(C(=O)O)o1`: the melting point lay in the range of 189 to 195 °C.
In the case of `Cn1nnc(-c2ccc3c(c2)c(C2=CCN(CCc4nnnn4C)CC2)cn3-c2ccc(F)cc2)n1`, the melting point was 171 to 173 °C.
Take `CC(C)(C)OC(=O)N1C[C@@H]2C(=O)CCC(c3ccccc3)(c3ccccc3)[C@@H]2C1`: the melting point was found to be 119 °C.
`COc1cccc(COc2ccc(S(=O)(=O)c3ccc(C)nc3Nc3c(C)cc(C)cc3C)cc2)c1OC` showed a melting point of 124 to 126 °C.
`COC(=O)c1sc(C)c(Br)c1OC(=S)N(C)C`: the melting point lay within 152 to 154 °C.
To `NN=C(c1ccc(F)cc1)c1ccc(F)cc1` belongs 78 °C; to `CC#CCC(CC#CC)(C(=O)O)S(=O)(=O)c1ccc(OC)cc1`, 141 to 143 °C.
`O=C(Nc1ccc(-c2ncc(-c3ccc(NC(=O)C4CCCCCC4)cc3)[nH]2)cc1)c1ccc(Cl)c(Cl)c1` displayed a melting point of 304 to 306 °C.
`CN(C)C(=O)Nc1cc(O)cc(O)c1` registered a melting point of 230 °C.
To `O=C(Nc1ccc(C(F)(F)F)cc1)NC1CCN(C(=O)c2cccnc2)CC1` belongs 213 to 217 °C; to `COc1ccc(C(O)CNCc2cccc([N+](=O)[O-])c2)cc1OC` (centres undefined), 105 to 107 °C; to `CC(C)COc1c(-c2ccc(S(N)(=O)=O)cc2)cnn(CC(F)(F)F)c1=O`, 170 to 172 °C.
Compound `CC(C)(C)c1cccc(S(=O)(=O)Nc2ccc(C(F)(F)F)nc2I)c1` showed a melting point of 125 °C.
To `[N-]=[N+]=Nc1nc(-c2ccccc2)nc(-c2ccccc2)n1` belongs 115 to 117 °C; to `O=c1c2c(Cl)cc(Cl)cc2n(Cc2ccccc2)c(=O)n1Cc1cccc(I)c1`, 155 to 157 °C; to `COc1ccc(C2=NN(C3CCN(C(=O)CN4C(=O)CCC4=O)CC3)C(=O)C(C)(C)C2)c2c1OC(C)(C)C2`, 240 to 241 °C.
The compound `Cc1cc(C#N)cc(C(=O)Nc2ccc(F)cn2)n1` registered a melting point of 204 °C.
Regarding `CC(C)(C)C(=O)Nc1c(F)cc(F)cc1Oc1ccc(C2(C#N)CCCC2)cc1`, the melting point was 103 to 105 °C.

The values above are taken from a melting point compilation (Tetko et al.; mined from patent text by program, amines drawn as free bases though some values may be those of a salt).
